Results: patent US10000467B2, “Cyanine compounds” (Pierce Biotechnology, Inc., priority 2012, dated 2018)

Experiments:
HDAC2 = experiment: Immunofluorescence in U2OS cells, rabbit-anti-HDAC2 primary antibody; type: cell-based, human
Protocol: (§1) The inventive compounds and commercial dye were evaluated for immunofluorescence in cell based assays using the following protocol. Plates containing U2OS cells (human osteosarcoma cell line) were fixed in 4% paraformaldehyde in PBS/0.1% Triton X-100 for 15 min at room temperature. The cells were then […] with 2% BSA in PBS/0.1% Triton X-100 for 15 min at room temperature. Negative controls contain only 2% BSA/PBS-0.1% Triton-X100 blocker. Diluted primary antibodies, mouse-anti-protein disulphide isomerase (PDI) or rabbit-anti-HDAC2, diluted in 2% BSA/PBS-0.1% Triton-X100 were added to the plates and incubated for one hour at room temperature. Negative controls contain only 2% BSA/PBS-0.1% Triton-X100 blocker. The plates were washed 3×100 μl with PBS. Based on the calculated protein concentrations, the conjugates made in Example 22 were diluted to 4 μg/ml in PBS/0.1% Triton X-100 and added to the plates (50 μl/well) and incubated one hour in the dark at room temperature. After incubation, the […] antibody solution was removed from the plates, and the plates were washed 3×100 μl with PBS. One hundred μl of 0.1 μg/ml Hoechst dye in PBS was added per well. The plates were then scanned on an ArrayScan® Plate Reader for imaging and quantitation.

[1] = system: protein disulphide isomerase (PDI); experiment: Immunofluorescence in U2OS cells, mouse-anti-PDI primary antibody; type: cell-based, human; settings: FIGS. 17-19; GAM conjugates at 2.5×-15× molar excess
Protocol: as §1

[2] = FIGS. 20-22, GAR conjugates purified with 200 μl of resin/mg of protein

For Alexa Fluor 647, the Quenching (HDAC2; FIGS. 14-16, GAR conjugates at 2.5×-15× molar excess) was “significant quenching at high molar excesses”, the “Fluorescence intensity (Mean Total Intensity)” value (HDAC2; [2]) was “highest binding intensity at 2.5× dye molar excess” and the Quenching (HDAC2; [2]) was “significant quenching above 2.5× molar excess”. The “Fluorescence intensity (Mean Total Intensity)” value [1] was “highest binding intensity at 2.5× dye molar excess” and the Quenching [1] was “significant quenching above 2.5× molar excess”.
